Entries after “also recorded” stand apart in the source; their conditions may differ.
Assays:
[1] = test system: mouse lupus disease models; test: SLE disease models, summary of findings; format: in vivo; conditions: summary over lupus models
Description: Male BXSB-Yaa and female NZBWF1/J mice were purchased from Jackson Labs (Bar Harbor, Me.), both of which manifest with spontaneous lupus disease. Female DBA/1 mice were purchased from Harlan Laboratories (Indianapolis, Ind.) and at the indicated ages given an intraperitoneal injection of 0.5 ml pristane (2,6,10,14-Tetramethylpentadecane; Sigma, St. Louis, Mo.) to chemically induce lupus disease or of 0.5 ml PBS to generate age-matched, non-diseased control mice. Mice were dosed daily by oral administration of compound or drug in 0.5% methylcellulose, for the time period indicated.

NZBWF1/J mice = test: NZBxNZW strain lupus disease model; format: in vivo, mouse; conditions: NZB/W model; for anti-dsDNA titers: QD PO; for proteinuria: UACR
Description: Figure Legend: Female NZBWF1/J mice were received at 6 weeks of age, baseline bleeds were performed, and mice were monitored for disease progression by following anti-dsDNA titers. At 20 weeks of age, mice were randomized into groups with equivalent median anti-dsDNA titers and treated at 23 weeks of age with Vehicle (Veh; 0.5% methyl-cellulose) alone or 33, 100, or 300 mg/kg ER-892887 once-a-day orally (QD PO). All mice were sacrificed at 45 weeks of age (22 weeks total treatment) and blood plasma anti-dsDNA titers were determined by ELISA. (A) Impact of ER-892887 treatment over time on anti-dsDNA titers. (B) Bar graph of +22 weeks treatment data for ER-892887 derived from data shown in (A). (C) Just prior to termination at 45 weeks of age (following 22 weeks of treatment), urine was collected from individual mice, and the Urinary Albumin Creatinine Ratio (UACR, proteinuria) was determined for each animal as an indirect measure of kidney function. (D) Summary of mortality observed in this study. (E) At the time of sacrifice, kidneys were collected from individual mice, fixed in 10% formalin for 24 hours, embedded in paraffin, and H&E stained sections were generated for histopathology assessment in a blinded fashion. Statistical significance was determined by Mann-Whitney test for (C).
Figure Legend. Female NZBWF1/J mice were received at 8 weeks of age, baseline bleeds were performed, and mice were monitored for disease progression by following anti-dsDNA titers. At 24 weeks of age, mice were randomized into groups with equivalent median anti-dsDNA titers and treated at 25 weeks of age QD PO with Vehicle (Veh; 0.5% methyl-cellulose) alone or 33, 100, or 300 mg/kg ER-892887. Anti-dsDNA titers were determined by ELISA on blood plasma samples at the time points indicated. (A) Impact of compound treatment on median anti-dsDNA titers over time up to +17 weeks of treatment. (B) Impact of compound treatment on median anti-dsDNA at the +13 weeks of treatment time point only from data shown in (A). (C) After 13 weeks (top graph) or 17 weeks (bottom graph) of compound treatment, urine was collected from individual mice, and the Urinary Albumin Creatinine Ratio (UACR, proteinuria) was determined for each animal as an indirect measure of kidney function. Mice indicated within the circle with high UACR were those animals that died between the +13 wks and +17 wks of treatment (statistical significance was determined by Mann-Whitney test). (D) Blood urea nitrogen (BUN) measured in the plasma from select groups after 13 weeks of treatment. (E) Mortality curves for Vehicle versus compound treated mice up to 17 weeks of treatment. […] (F) Summary of mortality observed in this study.
Figure Legend: Female NZBWF1/J mice were received at 6 weeks of age, baseline bleeds were performed, and mice were monitored for disease progression by following anti-dsDNA titers. At 24 weeks of age, mice were randomized into groups with equivalent median anti-dsDNA titers and treated with Vehicle (Veh; 0.5% methyl-cellulose) alone or 300 mg/kg ER-885454 once-a-day orally (QD PO). All mice were sacrificed at 47 weeks of age (23 weeks total treatment) and blood plasma anti-dsDNA titers were determined by ELISA (A). (B) Just prior to termination at 47 weeks of age, urine was collected from individual mice, and Urinary Albumin Creatinine Ratio (UACR, proteinuria) was determined for each animal as an indirect measure of kidney function. (C) At the time of sacrifice, kidneys were collected from individual mice, fixed in 10% formalin for 24 hours, embedded in paraffin, and H&E stained sections were generated for histopathology assessment in a blinded fashion. Statistical significance was determined by Mann-Whitney test for (A) above.
Figure Legend: Female NZBWF1/J mice were received at 4 weeks of age, baseline bleeds were performed at 10 and 26 weeks, and mice were monitored for disease progression by following anti-dsDNA titers and proteinuria. […]

Row | Compound | kidney disease as manifested by proteinuria and histologic changes [1] | production of several autoantibody specificities [1] | delay of development of proteinuria compared with two drugs commonly used in the treatment of human lupus (NZBWF1/J mice) | efficacy in combination with hydroxychloroquine and prednisolone (NZBWF1/J mice) | histological signs of glomerulonephritis (NZBWF1/J mice) | anti-dsDNA titers (NZBWF1/J mice) | proteinuria (NZBWF1/J mice) | survival (NZBWF1/J mice; vs. Vehicle, 33-100 mg/kg QD PO, long-term dosing)
1 | COc1ccc([C@@H]2C[C@H](C(F)(F)F)n3nc(-c4ccc(C(=O)N5CCNCC5)cc4)cc3N2)cc1OC [ER-892887, (4-((5S,7R)-5-(3,4-dimethoxyphenyl)-7-(trifluoromethyl)-4,5,6,7-tetrahydropyrazolo[1,5-a]pyrimidin-2-yl)phenyl)(piperazin-1-yl)methanone] | suppressed | limited | more effectively | efficacious | reduced | reduced | reduced proteinuria | statistically significant survival benefit; also recorded: afforded survival benefit; also recorded: significantly enhanced survival
2 | COc1ccc([C@@H]2C[C@H](C(F)(F)F)n3nc(-c4ccncc4)cc3N2)cc1OC [ER-885454] | suppressed | limited | – | – | reduced | reduced | reduced | –

Source: patent US9126999B2, “Tetrahydropyrazolopyrimidine compounds” (EISAI R&D MANAGEMENT CO., LTD., priority 2012, dated 2015)
